In patent US11649246B2, “Salts of 4-amino-N-(l-((3-chloro-2-fluorophenyl)amino)-6-methylisoquinolin-5-yl)thieno[3,2-D]pyrimidine-7-carboxamide, and crystalline forms thereof” (Hanmi Pharm. Co., Ltd., priority 2017, dated 2023):
Counter-ions that a name gives are not always drawn.

What was measured:
Type in all cases: physicochemical
[1] = Hygroscopicity / water content at 25° C. and 75% RH; conditions: for Water Content (%): salt as prepared, before humidity exposure; for water content after hygroscopicity test: 25° C. and 75% RH
Method: Various salt forms of Formula (I) were prepared from Formula (I) free base and characterized by water solubility, PXRD, DSC, DVS and hygroscopicity.

[2] = Salt screening: solubility by HPLC according to KP, USP and EP general chapters; conditions: water, Example 1B salts
Method: For each Example 1B salt, a mixture of 40 mL (20 v/w) of a suitable solvent and 2 g Formula (I) free base was formed with agitation at room temperature. The indicated acid (2.2 eq.) was added to the mixture and salt formation was monitored by visual check. The resulting solid bis-acid salt was stirred for 24 hr at room temperature then filtered, and washed with a suitable solvent.
The water content, solubility in water (mg/mL), appearance, salt yield (%) and PXRD results for each of the salts of Example 1B are summarized in Table 4 where “MsOH” refers to methane sulfonic acid; “BsOH” refers to benzenesulfonic acid; “OW” refers to off-white; “W” refers to white; “Cryst” refers to crystalline; and “Amorph” refers to amorphous. Solubility was measured by HPLC according to KP, USP and EP general chapters.

[3] = Stress stability test at 60° C.; conditions: for physicochemical stability (summary in words): up to 4 weeks
Method: In order to compare physicochemical stability among the crystalline form prepared in Example 3 (crystalline Formula (I) bis-hydrochloride Form I) and 16 (Formula (I) crystalline free base), and the amorphous form prepared in Comparative Example 1, a stress stability test was conducted by storing samples at 60° C., for different periods of time up to 4 weeks.

[4] = Water content of Form VI after humidity exposure (conversion to Form I)
Method: Crystalline Form VI was converted to Form I by two methods. In a first method, Form VI was exposed to a relative humidity of 60% at 25° C. In a second method, Form VI was exposed to a relative humidity of 20% at 21° C.

[5] = Hygroscopicity by dynamic vapor sorption (DVS); conditions: 25°, Form I
Method: Dynamic vapor sorption (DVS) analysis was performed in a DVS advantage (Surface measurement system, United Kingdom) analyzer at 25° C. with a relative humidity of 0% to 90%. A sample in an amount of 10 mg was placed into a wire-mesh vapor sorption balance pan and then attached to a DVS advantage dynamic vapor sorption balance via surface measurement systems. […] Upon completion of the sorption cycle, the sample was dried using the same process while maintaining a relative humidity of 0%. The changes in the sample weight during the adsorption/desorption cycle (repeated 3 times) were recorded and the hygroscopicity of the sample was measured. DVS isotherm diagrams are presented in FIGS. 1, 3, 6, 10, 13, 16 and 19 where Target PP (%) refers to relative humidity, “SORP” refers to adsorption and “DESORP” refers to desorption.
Hygroscopicity was measured by DVS where the DVS curve for Formula (I) bis-hydrochloride was recorded in a DVS Advantage I analyzer (SMS, United Kingdom). The DVS was operated over 3 cycles for measurement of the surface adsorption effects of water, from 0% RH to 90% RH at 25°.

[6] = Partition / distribution coefficient octanol-water (Sirius T3); conditions: for distributed ratio in octanol phase to water phase: ratio to 1
Method: The partition coefficient, Log P, was measured with a T3 (Sirius Analytical Instrument Ltd., UK). About 1 mg of Formula (I) bis-hydrochloride was added to a 15 mL GLpKa beaker, dissolved with octanol/150 mM KCl, adjusted to pH 1.8 with 0.5 N HCl, and titrated up to pH 12.2 with 0.5 N KOH. The partition coefficient of the octanol-water system was determined by correcting the difference between titration curves of the blank from the titration curve, by inserting the value of the dissociation constant measured previously.

[7] = Solubility of bis-hydrochloride Form I by HPLC test and observation test
Method: Solubility was measured by HPLC according to KP, USP and EP general chapters. […] The results of solubility were same between HPLC test and observation test.

pH of aqueous solution = conditions: room temperature, Form I
Method: Aqueous solution pH was measured by preparing 0.01%, 0.1% and 1% aqueous solutions of Formula (I) bis-hydrochloride and then shaking the solution for 30 minutes at room temperature followed by filtration. The pH of the filtered aqueous solution was measured with a S2K713 Pocket pH meter (ISFETCOM, Japan) according to the method of the Korean Pharmacopoeia.

[8] = Dissociation constant (pKa), GLpKa method, Sirius T3; conditions: as an aqueous solution, calculated by extrapolation
Method: Based on these pKa values, Formula (I) is believed to be weakly basic compound.
The dissociation, pKa, was measured with a T3 (Sirius Analytical Instrument Ltd., UK). About 1 mg of Formula (I) bis-hydrochloride was transferred to a GLpKa beaker, dissolved with 43% to 53% MDM solution (ISA Water/MeOH/ACN/p-Dioxane=40/20/20/20, Sirius), adjusted to pH 1.8 with 0.5 N HCl, and titrated up to pH 12.2 with 0.5 N KOH. The pKa as an aqueous solution was calculated by extrapolation.

## Cc1ccc2c(Nc3cccc(Cl)c3F)nccc2c1NC(=O)c1csc2c(N)ncnc12 [BsOH, 4-amino-N-(1-((3-chloro-2-fluorophenyl)amino)-6-methylisoquinolin-5-yl)thieno[3,2-d]pyrimidine-7-carboxamide]
[1]
  Water Content (%): 0.9%
[2]
  H2O Solubility: 0.03 mg/mL

## Cc1ccc2c(Nc3cccc(Cl)c3F)nccc2c1NC(=O)c1csc2c(N)ncnc12 [Comparative Example 1, 4-amino-N-(1-((3-chloro-2-fluorophenyl)amino)-6-methylisoquinolin-5-yl)thieno[3,2-d]pyrimidine-7-carboxamide]
[3]; 2 weeks
  Purity(%) (A % by HPLC): 99.5%
  Total impurities(%) (A % by HPLC): 0.485%
[3]; 4 weeks
  Purity(%) (A % by HPLC): 99.3%
  Total impurities(%) (A % by HPLC): 0.68%
[3]; 1 day
  Purity(%) (A % by HPLC): 99.7%
  Total impurities(%) (A % by HPLC): 0.30%
[3]; 3 days
  Purity(%) (A % by HPLC): 99.7%
  Total impurities(%) (A % by HPLC): 0.31%
[3]; 7 days
  Purity(%) (A % by HPLC): 99.6%
  Total impurities(%) (A % by HPLC): 0.38%
[3]; Initial
  Purity(%) (A % by HPLC): 99.7%
  Total impurities(%) (A % by HPLC): 0.32%
[3]; listed as amorphous form
  physicochemical stability (summary in words): change of purity after 7 days

## Cc1ccc2c(Nc3cccc(Cl)c3F)nccc2c1NC(=O)c1csc2c(N)ncnc12 [Example 16, 4-amino-N-(1-((3-chloro-2-fluorophenyl)amino)-6-methylisoquinolin-5-yl)thieno[3,2-d]pyrimidine-7-carboxamide]
[3]; 2 weeks
  Purity(%) (A % by HPLC): 99.7%
  Total impurities(%) (A % by HPLC): 0.29%
[3]; 7 days
  Purity(%) (A % by HPLC): 99.7%
  Total impurities(%) (A % by HPLC): 0.29%
[3]; Initial
  Purity(%) (A % by HPLC): 99.7%
  Total impurities(%) (A % by HPLC): 0.29%
[3]; listed as crystalline form of the free base
  physicochemical stability (summary in words): remarkably superior stability over the amorphous form

## Cc1ccc2c(Nc3cccc(Cl)c3F)nccc2c1NC(=O)c1csc2c(N)ncnc12 [Form VI, 4-amino-N-(1-((3-chloro-2-fluorophenyl)amino)-6-methylisoquinolin-5-yl)thieno[3,2-d]pyrimidine-7-carboxamide]
[4]; after exposure at 21° C. and 20% RH for 3 hours
  water content: 8.0%
[4]; after exposure at 21° C. and 20% RH for 6 hours
  water content: 10.4%
[4]; after exposure at 21° C. and 20% RH for 5 days
  water content: 10.1%
[4]; after exposure at 25° C. and 60% RH
  water content: 11.3%

## Cc1ccc2c(Nc3cccc(Cl)c3F)nccc2c1NC(=O)c1csc2c(N)ncnc12 [Formula (I) bis-hydrochloride salt, 4-amino-N-(1-((3-chloro-2-fluorophenyl)amino)-6-methylisoquinolin-5-yl)thieno[3,2-d]pyrimidine-7-carboxamide]
[5]; from 0% RH to 20% RH
  water absorption (DVS): about 9.4%
[5]; from 0% RH to 90% RH
  water absorption (DVS): about 14.1%
[5]; from 10% RH to ~0% RH
  water desorption (DVS): about 8.9%
[5]; from 20% RH to 90% RH
  water absorption (DVS), increased to: 14.1%
[5]; from 90% RH to 10% RH
  water desorption (DVS): about 5.2%
[1]
  water content after hygroscopicity test: 11.7%
  Water Content (%): 6.2%
[1]; listed as HCl
  Water Content (%): 6.2%
[6]; neutral state at pH 11 or higher
  distributed ratio in octanol phase to water phase: about 20,000
[6]; octanol/water (octanol/150 mM KCl), neutral state at pH 11 or higher
  logP: 4.33
[6]; octanol/water, pH 7.4
  logD: 5.24
[6]; pH 7.4
  distributed ratio in octanol phase to water phase: about 200,000
[7]; ACN
  Solubility Observation: practically in soluble
[7]; DMSO
  Solubility Observation: freely soluble
[7]; Dichloromethane
  Solubility Observation: practically in soluble
[7]; Ethanol
  Solubility Observation: very slightly soluble
[7]; Ethyl acetate
  Solubility Observation: practically in soluble
[7]; Ethyl ether
  Solubility Observation: practically in soluble
[7]; Methanol
  Solubility Observation: sparingly soluble
[7]; Water
  Solubility Observation: practically insoluble
[7]; buffer over pH 3.0
  Solubility Observation: practically insoluble
[7]; n-Hexane
  Solubility Observation: practically in soluble
[7]; pH 1.2 buffer
  Solubility Observation: very slightly soluble
[7]; pH 2.0 buffer
  Solubility Observation: very slightly soluble
pH of aqueous solution; 0.1 mg/mL (0.01%) solution
  pH of aqueous solution: 3.9
pH of aqueous solution; 1 mg/mL (0.1%) solution
  pH of aqueous solution: 2.6
pH of aqueous solution; 10 mg/mL (1%) solution
  pH of aqueous solution: 1.8
[2]; listed as HCl
  H2O Solubility: 0.12 mg/mL
[8]
  pKa1: 3.86
  pKa2: 4.73
  pKa3: 10.30
[8]; listed as Formula (I) bis-hydrochloride
  pKa3: 10.30

## Cc1ccc2c(Nc3cccc(Cl)c3F)nccc2c1NC(=O)c1csc2c(N)ncnc12 [Formula (I) bis-hydrogensulfate salt, 4-amino-N-(1-((3-chloro-2-fluorophenyl)amino)-6-methylisoquinolin-5-yl)thieno[3,2-d]pyrimidine-7-carboxamide]
[1]
  water content after hygroscopicity test: 17.1%
  Water Content (%): 2.6%
[1]; listed as H2SO4
  Water Content (%): 2.6%
[2]; listed as H2SO4
  H2O Solubility: 0.16 mg/mL

## Cc1ccc2c(Nc3cccc(Cl)c3F)nccc2c1NC(=O)c1csc2c(N)ncnc12 [HBr, 4-amino-N-(1-((3-chloro-2-fluorophenyl)amino)-6-methylisoquinolin-5-yl)thieno[3,2-d]pyrimidine-7-carboxamide]
[1]
  Water Content (%): 2.9%
[2]
  H2O Solubility: 0.05 mg/mL

## Cc1ccc2c(Nc3cccc(Cl)c3F)nccc2c1NC(=O)c1csc2c(N)ncnc12 [MsOH, 4-amino-N-(1-((3-chloro-2-fluorophenyl)amino)-6-methylisoquinolin-5-yl)thieno[3,2-d]pyrimidine-7-carboxamide]
[1]
  Water Content (%): 2.1%
[2]
  H2O Solubility: 0.05 mg/mL
